Here are results for two molecules from PMC11490872, “Drug-resistant menin variants retain high binding affinity and interactions with MLL1” (The Journal of Biological Chemistry, 2024).

Assay [1] deals with patients with MLL1-r and NPM1-mut acute leukemias. The settings on record: cited from earlier work.
The subject of the next assay is menin M327I. Further details: method as in PMID 36922589. Particulars: versus wild-type menin; cited from earlier work.
A further assay addresses T1, menin^WT (Homo sapiens, UniProt O00255).
T1 construct: Full-length human menin was expressed in BL21(DE3) cells; thioredoxin-His6 (cleaved yes); made in house; host or cells: E. coli BL21(DE3)
T1 sequence (O00255 1-610): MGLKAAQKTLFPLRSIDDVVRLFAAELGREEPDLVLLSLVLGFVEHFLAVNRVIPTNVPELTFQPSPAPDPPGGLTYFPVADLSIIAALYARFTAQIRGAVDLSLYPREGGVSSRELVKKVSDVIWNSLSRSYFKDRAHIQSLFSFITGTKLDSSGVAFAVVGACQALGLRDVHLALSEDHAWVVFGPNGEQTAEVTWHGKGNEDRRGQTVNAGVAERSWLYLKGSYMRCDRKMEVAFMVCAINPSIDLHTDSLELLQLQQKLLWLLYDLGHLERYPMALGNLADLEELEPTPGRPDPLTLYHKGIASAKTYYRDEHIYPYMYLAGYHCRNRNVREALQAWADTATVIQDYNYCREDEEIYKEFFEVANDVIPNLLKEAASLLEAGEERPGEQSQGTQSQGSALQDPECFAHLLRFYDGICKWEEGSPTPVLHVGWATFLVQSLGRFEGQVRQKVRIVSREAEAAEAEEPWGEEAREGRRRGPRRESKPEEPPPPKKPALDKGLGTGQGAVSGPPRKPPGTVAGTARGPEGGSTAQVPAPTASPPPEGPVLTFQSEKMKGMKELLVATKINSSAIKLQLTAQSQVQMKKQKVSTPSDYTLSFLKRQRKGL
In words: ITC binding of MLL1 fragments to menin^WT. As for the experimental part: Menin and MLL1 fragments were dialyzed at 4 °C against a 50 mM sodium phosphate pH 7.5, 50 mM NaCl, 1 mM TCEP buffer, and degassed prior to measurement. The titrations were performed using the VP-ITC system (MicroCal) at 25 °C. The calorimetric cell, which contained menin (concentrations in the 5–10 μM range), was titrated with the MLL1^160 and MLL1^4-15 derived peptides (concentration range 40–100 μM) injected in 10-μL aliquots. Data was analyzed using Origin 7.0 (OriginLab) to obtain Kd, stoichiometry, entropy, and enthalpy ([2]). Experiments with WT, M327I, T349M, and G331R menin and MLL1^160 or MLL1^4-15 were run in duplicate. Experiments with G331D menin and MLL1^160 were run in duplicate while experiments with G331D and MLL1^4-15 were run in quadruplicate.

Setting [2] is: Phase 1/2, AML patients with KMT2A (MLL1) rearrangements and NPM1 mutations.

As a reminder, the Kd is the equilibrium constant for the complex coming apart.

Read-outs that look alike come from different tables or passages of the source.

As to `CCN(C(=O)c1cc(F)ccc1Oc1cncnc1N1CC2(CCN(C[C@H]3CC[C@H](NS(=O)(=O)CC)CC3)CC2)C1)C(C)C` [Revumenib, reference compound], in assay [1] (setting [2]), the complete remission is recorded as ~35% and the overall response rate is reported as ~45%. In addition, the “rate of complete remission” value in assay [1] (phase 1/2 first-in-human trials, MLL1-r and NPM1-mut acute leukemias) is reported as “over 30%”. Further, the “reduction of binding by M327I mutation” value in the assay on menin M327I is reported as 51 fold.

B1: MLL1^160: N-terminal 160 amino acids of human MLL1, Cys2 mutated to alanine, recombinant (protein)
chain: MAHSARWRFPARPGTTGGGGGGGRRGLGGAPRQRVPALLLPPGPPVGGGGPGAPPSPPAVAAAAAAAGSSGAGVPGGAAAASAASSSSASSSSSSSSSASSGPALLRVGPGFDAALQVSAAIGTNLRRFRAVFGESGGGGGSGEDEQFLGFGSDEEVRVR
modifications: The printed 'Cys2' is the single N-terminal cysteine, Cys5 in the entry (peptide S4-A5-R6); Trx-His6 tag cleaved
Take B1: the Kd with menin^WT (ITC summary Fig. 1B, values marked *, n = 2, read-out: WT Kd (nM), ITC) amounted to 0.5 ± 0.3 nM; with menin^WT (ITC, representative binding isotherm Fig. 1A, 25 °C, read-out: Kd), 0.5 ± 0.2 nM.
